Experimental findings from patent US10654832B2, “3-(benzoimidazol-2-YL)-indazole inhibitors of the Wnt signaling pathway and therapeutic uses thereof” (Samumed, LLC, priority 2013, dated 2020) are described below.

In the assay the test system is Wnt activity (wnt-responsive SP5 promoter luciferase reporter in SW480 cells). As to the kind of experiment: Wnt activity reporter assay (SP5 promoter-firefly luciferase in SW480 cells). Format: cell-based. The conditions noted are these: Homo sapiens; SW480 colon cancer cells with SP5 promoter luciferase reporter; 24 h after compound addition; half-log dilutions, three micromolar top concentration; normalized to DMSO; read-out: Wnt inhibition. Summed up:
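SW480 cells (APC-mutant) stably carried a lentiviral SP5-promoter (eight TCF/LEF sites) firefly luciferase reporter. Signals were normalized to DMSO-only cells to derive IC50.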
(In general: A reporter such as luciferase makes a cellular process visible.)

Regarding `Cc1ccncc1-c1ccc2[nH]nc(-c3nc4c(-c5cccnc5)cccc4[nH]3)c2c1` [Compound 77, 5-(4-Methylpyridin-3-yl)-3-(4-(pyridin-3-yl)-1H-benzo[d]imidazol-2-yl)-1H-indazole], the IC50 turned out to be 63 nM.
The same measure for `CN(C)c1cncc(-c2ccc3[nH]nc(-c4nc5c(-c6cccnc6)cccc5[nH]4)c3c2)c1` [Compound 79, N,N-Dimethyl-5-(3-(4-(pyridin-3-yl)-1H-benzo[d]imidazol-2-yl)-1H-indazol-5-yl)pyridin-3-amine]: 45 nM; for `CCCCC(=O)Nc1cncc(-c2ccc3[nH]nc(-c4nc5c(-c6ccccc6F)cccc5[nH]4)c3c2)c1` [Compound 66, N-(5-(3-(4-(2-Fluorophenyl)-1H-benzo[d]imidazol-2-yl)-1H-indazol-5-yl)pyridin-3-yl)pentanamide]: not below 4000 nM.
The same measure for `CN(C)c1cncc(-c2ccc3[nH]nc(-c4nc5c(N6CCCCC6)cccc5[nH]4)c3c2)c1` [Compound 151, N,N-Dimethyl-5-(3-(4-(piperidin-1-yl)-1H-benzo[d]imidazol-2-yl)-1H-indazol-5-yl)pyridin-3-amine]: 41 nM.
The same measure for `O=C(Nc1cncc(-c2ccc3[nH]nc(-c4nc5c(-c6cccnc6)cccc5[nH]4)c3c2)c1)C1CCCCC1` [Compound 94, N-(5-(3-(4-(Pyridin-3-yl)-1H-benzo[d]imidazol-2-yl)-1H-indazol-5-yl)pyridin-3-yl)cyclohexanecarboxamide]: 121 nM; for `Fc1ccc(-c2cccc3[nH]c(-c4n[nH]c5ccc(-c6cncc(CNCc7ccccc7)c6)cc45)nc23)cc1` [Compound 47, N-benzyl-1-(5-(3-(4-(4-Fluorophenyl)-1H-benzo[d]imidazol-2-yl)-1H-indazol-5-yl)pyridin-3-yl)methanamine]: 450 nM.
For `Fc1ccccc1-c1cccc2[nH]c(-c3n[nH]c4ccc(-c5cncc(CNCC6CCCC6)c5)cc34)nc12` [Compound 72, 1-Cyclopentyl-N-((5-(3-(4-(2-fluorophenyl)-1H-benzo[d]imidazol-2-yl)-1H-indazol-5-yl)pyridin-3-yl)methyl)methanamine], the IC50 stood at 1140 nM.
The same measure for `CCCCC(=O)Nc1cncc(-c2ccc3[nH]nc(-c4nc5c(-c6cccnc6)cccc5[nH]4)c3c2)c1` [Compound 90, N-(5-(3-(4-(Pyridin-3-yl)-1H-benzo[d]imidazol-2-yl)-1H-indazol-5-yl)pyridin-3-yl)pentanamide]: 11 nM.
The same measure for `Cc1ccncc1-c1ccc2[nH]nc(-c3nc4c(-c5ccccn5)cccc4[nH]3)c2c1` [Compound 125, 5-(4-Methylpyridin-3-yl)-3-(4-(pyridin-2-yl)-1H-benzo[d]imidazol-2-yl)-1H-indazole]: 54 nM; for `O=C(Nc1cncc(-c2ccc3[nH]nc(-c4nc5c(-c6ccoc6)cccc5[nH]4)c3c2)c1)C1CC1` [Compound 283, N-(5-(3-(4-(Furan-3-yl)-1H-benzo[d]imidazol-2-yl)-1H-indazol-5-yl)pyridin-3-yl)cyclopropanecarboxamide]: 57 nM.
For `Fc1cccc(-c2cccc3[nH]c(-c4n[nH]c5ccc(-c6cccnc6)cc45)nc23)c1` [Compound 4, 3-(4-(3-Fluorophenyl)-1H-benzo[d]imidazol-2-yl)-5-(pyridin-3-yl)-1H-indazole] the value was 4 nM; for `CC(C)CC(=O)Nc1cncc(-c2ccc3[nH]nc(-c4nc5c(-c6ccccn6)cccc5[nH]4)c3c2)c1` [Compound 122, 3-Methyl-N-(5-(3-(4-(pyridin-2-yl)-1H-benzo[d]imidazol-2-yl)-1H-indazol-5-yl)pyridin-3-yl)butanamide], 11 nM.
In the case of `CC(C)(C)CC(=O)Nc1cncc(-c2ccc3[nH]nc(-c4nc5c(-c6cccc(F)c6)cccc5[nH]4)c3c2)c1` [Compound 16, N-(5-(3-(4-(3-Fluorophenyl)-1H-benzo[d]imidazol-2-yl)-1H-indazol-5-yl)pyridin-3-yl)-3,3-dimethylbutanamide], the IC50 was determined as 31 nM.
For `CCCCC(=O)Nc1cncc(-c2ccc3[nH]nc(-c4nc5ccccc5[nH]4)c3c2)c1` [Compound 234, N-(5-(3-(1H-Benzo[d]imidazol-2-yl)-1H-indazol-5-yl)pyridin-3-yl) pentanamide] the value was 123 nM.
